# Values of other authors as cited in US20060252738A1, “Method for preparing and using water-based steroid pheromone compositions” (Phero Tech Inc., priority 2005, published 2006).
# Legend:
# [1] = system: sows; settings: pigs; Reed et al. (1974)
# [2] = system: sows that have reached oestrus; settings: for function in place of boar saliva: pressurized aerosol sprays in organic solvents, sows that have reached oestrus, Melrose et al. 1971
structure (smiles),measurement,setting,value
C[C@]12CC[C@H](O)C[C@@H]1CC[C@@H]1[C@@H]2CC[C@]2(C)C=CC[C@@H]12 [3β-hydroxy-5α-androst-16-ene],bioactivity as diagnostic tool relative to androstenone,[1],less effective
C[C@@]12CCC[C@H]1[C@@H]1CC[C@H]3CC(=O)CC[C@]3(C)[C@H]1CC2 [5α-androstan-3-one],bioactivity as diagnostic tool relative to androstenone,[1],less effective
C[C@]12CCC(=O)C[C@H]1CC[C@@H]1[C@@H]2CC[C@]2(C)C=CC[C@@H]12 [5β-androst-16-en-3-one],bioactivity as diagnostic tool relative to androstenone,[1],comparable
"C[C@]12CC[C@@H](O)C[C@@H]1CC[C@@H]1[C@@H]2CC[C@]2(C)C=CC[C@@H]12 [androstenol, 3α-hydroxy-5a-androst-16-ene]",function in place of boar saliva,[2],inducing an immobile mating stance
"C[C@]12CCC(=O)C[C@@H]1CC[C@@H]1[C@@H]2CC[C@]2(C)C=CC[C@@H]12 [androstenone, 5α-androst-16-en-3-one]",effective dose,[2]; established by Melrose et al. (1972),2 to 20 µg
same,function in place of boar saliva,[2],inducing an immobile mating stance
"C[C@@]12C=CC[C@H]1[C@@H]1CCC3=CC(=O)CC[C@]3(C)[C@H]1CC2 [andrsost-4,16-dien-3-one]",bioactivity as diagnostic tool relative to androstenone,[1],comparable
